For one series, the system named is DU145 (p53, mt). In words: MTT cytotoxicity assay, DU145. It is filed as cell-based. The settings on record: Homo sapiens, DU-145, 96 hr. The method, then:
(§1) To evaluate the cytotoxic activity of the two compounds, human prostate cancer cells (PC-3, LNCaP, and DU145) were plated into 96-well plate and incubated for 96 hr with various concentrations of desired drugs. During the last 2 hr, MTT (3-(4,5-dimethylthiazol-2-yl)-2,5-diphenyltetrazolium bromide) was added and the dark-blue formazan formed in live cells was dissolved in dimethyl sulfoxide and the absorbance was measured with a FLUOstar Optima microplate reader (BMG LABTECH Inc., Durham, N.C.) at 570 nm. The IC50 was defined as the concentration of a drug that inhibited cell growth by 50% (see Dong et al, supra, and Dong Z, et al. “Organ-specific modulation of steady-state mdr gene expression and drug resistance in murine colon cancer cells” J. Natl. Cancer Inst 1994;86(12):913-20, both references fully incorporated herein by this reference).
On the technique in general: Tetrazolium assays rely on reduction of a dye to a coloured formazan, in cell work by metabolically active cells.

Another series has as its system PC-3 (p53, del). Kind of series: MTT cytotoxicity assay, PC-3. The following applies: Homo sapiens, 96 hr. It is filed as cell-based. The method, then:
as §1

The next series has as its system PC-3MM2 tumors. In words: Orthotopic model of PC-3 human prostate cancer cells in nude mice. It is filed as in vivo. The following applies: for toxic side effects on mice: based on body weight and H & E-stained sections of heart, lung, liver, kidney, spleen. The method, then: PC-3MM2 cells are implanted into the prostate of nude mice. The therapy begins 3 days later, when tumors are established, by daily intraperitoneal injection of DL-001 at 10 mg/kg or 20 mg/kg of body weight or of DMSO (solvent). Experiments are terminated 3 weeks later.

In another series the test system is caspase 3. In words: Fluorometric caspase assay in PC-3MM2 cells, caspase 3. The format is cell-based, human. The settings on record: 50 nM, 24 hr. The method, then:
(§2) Taxol is known to kill tumor cells by inducing arrest of cells at […] cell cycle and apoptosis. To identify mechanisms by which DL-001 killed tumor cells, we compared effects of DL-001 and Taxol on PC-3MM2 cells. […] To verify the role of DL-001 in inducing apoptosis, the activity of caspase 2,3,6,8 and 9 was analyzed. PC-3MM2 cells are treated with 50 nM of DL-001, taxol, or vincristine for 24 hr. Caspase activities in the treated cells are assessed by using a fluorometric caspase assay kit (Bio Vision, Mountain View, Calif.).

The subject of a further series is CT-26 (colon). In words: MTT cytotoxicity assay, CT-26. The format is cell-based. The following applies: CT26, mouse cells, parental. The method, then: as §1
(§3) In addition, the present inventors discovered that the compounds could also effectively kill human breast (MCF-7 and MDA435) and melanoma (A375) cells, as well as several lines of mouse tumor cells, with similar potencies (Table 1). Moreover, DL-001 could effectively kill endothelial cells derived from mouse lung and prostate (Table 1). Furthermore, it appears that tumor cells (LNCaP, MCF-7, and A375) that harbor the wildtype p53 tumor suppressor gene were relatively more sensitive to DL-001 (Table 1).

Another series concerns caspase 6. In words: Fluorometric caspase assay in PC-3MM2 cells, caspase 6. It is filed as cell-based, human. The following applies: 50 nM, 24 hr. The method, then: as §2
A further series concerns caspase 8. In words: Fluorometric caspase assay in PC-3MM2 cells, caspase 8. It is filed as cell-based, human. The settings on record: 50 nM, 24 hr. The method, then: as §2
The next series has as its system CT-26 (colon, MDR). In words: MTT cytotoxicity assay, CT-26 MDR. It is filed as cell-based. The settings on record: Mus musculus, CT26, multidrug resistant. The method, then: as §1, §3
In another series the test system is caspase 2. Kind of series: Fluorometric caspase assay in PC-3MM2 cells, caspase 2. It is filed as cell-based, human. The settings on record: 50 nM, 24 hr. The method, then: as §2
A further series has as its system caspase 9. In words: Fluorometric caspase assay in PC-3MM2 cells, caspase 9. It is filed as cell-based, human. The following applies: 50 nM, 24 hr. The method, then: as §2
Another series deals with PC-3MM2 cells. Kind of series: Cell cycle and apoptosis in PC-3MM2 cells. It is filed as cell-based, human. The method, then: as §2
The next series has as its system UV2237 (fibrosarcoma). Kind of series: MTT cytotoxicity assay, UV2237. The settings on record: mouse cells. It is filed as cell-based. The method, then: as §1, §3
Another series has as its system TRAMP (prostate). Kind of series: MTT cytotoxicity assay, TRAMP. The following applies: mouse cells. The format is cell-based. The method, then: as §1, §3
In another series the test system is A375 (p53, wt). In words: MTT cytotoxicity assay, A375. The following applies: Homo sapiens, A-375. It is filed as cell-based. The method, then:
as §1, §3

A further series has as its system LNCaP (p53, wt). In words: MTT cytotoxicity assay, LNCaP. It is filed as cell-based. The settings on record: Homo sapiens, 96 hr. The method, then:
as §1

The next series relates to MDA435 (p53, mt). Kind of series: MTT cytotoxicity assay, MDA435. It is filed as cell-based. The settings on record: Homo sapiens. The method, then: as §1, §3
Series [1] concerns mouse endothelial cells, prostate. Kind of series: MTT cytotoxicity assay, prostate endothelial cells. It is filed as cell-based. The following applies: Endothelial cell. The method, then:
as §1, §3

Another series deals with 4T1 (breast). Kind of series: MTT cytotoxicity assay, 4T1. The format is cell-based. The settings on record: mouse cells. The method, then:
as §1, §3

Series [2] has as its system mouse endothelial cells, lung. In words: MTT cytotoxicity assay, lung endothelial cells. It is filed as cell-based. The settings on record: Endothelial cell. The method, then: as §1, §3
A further series deals with MCF-7 (p53, wt). In words: MTT cytotoxicity assay, MCF-7. It is filed as cell-based. The following applies: Homo sapiens, MCF7. The method, then:
as §1, §3

For the next series, the system named is B16 (melanoma). In words: MTT cytotoxicity assay, B16. It is filed as cell-based. The following applies: mouse cells. The method, then:
as §1, §3

Marks after values point to notes of the source that are not given here.

As usually defined, the IC50 is the midpoint of a concentration-inhibition curve. As for `COc1ccc(C(=O)c2cc([N+](=O)O)ccc2N2CCOCC2)cc1` (racemic) [DL-002, (4-Methoxy-phenyl)-(2-morpholin-4-yl-5-nitro-phenyl)-methanone], the IC50 was 30 nM in the series with DU145 (p53, mt) and 30 nM in the series on PC-3 (p53, del). In addition, the “toxic side effects on mice” value in the series with PC-3MM2 tumors was “did not produce significant toxic side effects”.

Take `CC[C@]1(O)C[C@H]2CN(CCc3c([nH]c4ccccc34)[C@@](C(=O)OC)(c3cc4c(cc3OC)N(C=O)[C@H]3[C@@](O)(C(=O)OC)[C@H](OC(C)=O)[C@]5(CC)C=CCN6CC[C@]43[C@@H]65)C2)C1` [Vincristine, vincristine]: the “Fold change of caspase activity compared with that in control cells, caspase 3” value (“Fold change of caspase activity … caspase 3” for short) with caspase 3 was determined as 24 fold. Further, the IC50 with CT-26 (colon) was found to be 16 nM; in the series with DU145 (p53, mt) it was 5 nM; with PC-3 (p53, del) it was 4 nM; in the series on CT-26 (colon, MDR) it was 38 nM. For the same compound, the “Fold change of caspase activity compared with that in control cells, caspase 6” value (from here on “Fold change of caspase activity … caspase 6”) with caspase 6 was 1 fold. Besides, the “Fold change of caspase activity compared with that in control cells, caspase 8” value (from here on “Fold change of caspase activity … caspase 8”) in the series with caspase 8 is given as 1 fold. Also, the “Fold change of caspase activity compared with that in control cells, caspase 2” value (from here on “Fold change of caspase activity … caspase 2”) with caspase 2 is listed as 18 fold. Moreover, in the series on caspase 9, the “Fold change of caspase activity compared with that in control cells, caspase 9” value (from here on “Fold change of caspase activity … caspase 9”) was found to be 4 fold.

Turning to `CC(=O)O[C@H]1C(=O)[C@@]2(C)[C@H]([C@H](OC(=O)c3ccccc3)[C@]3(O)C[C@H](OC(=O)[C@H](O)[C@@H](NC(=O)c4ccccc4)c4ccccc4)C(C)=C1C3(C)C)[C@]1(OC(C)=O)CO[C@@H]1C[C@@H]2O` [Taxol], in the series with caspase 3, the “Fold change of caspase activity … caspase 3” value stood at 34 fold. In addition, the IC50 in the series with CT-26 (colon) is 73 nM; in the series with DU145 (p53, mt), 3 nM; in the series on PC-3 (p53, del), 4 nM; in the series on CT-26 (colon, MDR), 367 nM. In the series on caspase 6, the “Fold change of caspase activity … caspase 6” value was 1 fold. Besides, the “Fold change of caspase activity … caspase 8” value in the series on caspase 8 was determined as 1 fold. Further, the “Fold change of caspase activity … caspase 2” value in the series with caspase 2 was 26 fold. For the same compound, the “Fold change of caspase activity … caspase 9” value with caspase 9 is given as 7 fold. Moreover, the “effect on cell cycle and apoptosis” value in the series with PC-3MM2 cells was “arrested at S/G2 checkpoint of cell cycle and went into apoptosis”.

For `COc1ccc(C(=O)c2cc([N+](=O)O)ccc2N2CCCCC2)cc1` (racemic) [DL-001, (4-Methoxy-phenyl)-(5-nitro-2-piperidin-1-yl-phenyl)-methanone], the IC50 was determined as 35 nM in the series with UV2237 (fibrosarcoma); 41 nM with TRAMP (prostate); 39 nM with CT-26 (colon); 28 nM in the series with DU145 (p53, mt); 23 nM with A375 (p53, wt); 32 nM in the series with PC-3 (p53, del). Further, the IC50 in the series with LNCaP (p53, wt) was 11 nM; in the series on CT-26 (colon, MDR) it was 39 nM; in the series on MDA435 (p53, mt) it was 30 nM; in series [1], 51 nM; with 4T1 (breast), 30 nM; in series [2] it was 45 nM. The IC50 in the series with MCF-7 (p53, wt) came out at 17 nM; in the series on B16 (melanoma) it was 26 nM. The “Fold change of caspase activity … caspase 3” value in the series on caspase 3 is on record as 22 fold. The “Fold change of caspase activity … caspase 6” value with caspase 6 came to 1 fold. Also, in the series on caspase 8, the “Fold change of caspase activity … caspase 8” value came to 1 fold. For the same compound, in the series with PC-3MM2 tumors, the “toxic side effects on mice” value is listed as “did not produce significant toxic side effects”. The “growth of PC-3MM2 tumors in the prostate of nude mice” value in the series on PC-3MM2 tumors (daily intraperitoneal injection, 10 mg/kg or 20 mg/kg (DL-001), from day 3, terminated 3 weeks later) is given as “inhibited growth of PC-3MM2 tumors in dose-dependent manner”. Also, in the series on caspase 2, the “Fold change of caspase activity … caspase 2” value is given as 17* fold. Also, the “Fold change of caspase activity … caspase 9” value in the series with caspase 9 is given as 4 fold. For the same compound, the “effect on cell cycle and apoptosis” value in the series with PC-3MM2 cells is “arrested at S/G2 checkpoint of cell cycle and went into apoptosis”.

Values taken from US20070054908A1, “Novel pharmaceutical compositions and methods for treating tumors, including drug-resistant tumors” (priority 2005, published 2007).
